Source: patent US10689378B2, “Triazolopyridine compounds and uses thereof” (Novartis AG, priority 2016, dated 2020)
Read-outs that look alike come from different tables or passages of the source.

Columns and labels:
[1] = target: wild type PRC2 (wtPRC2) complex (Homo sapiens, UniProt O75530); experiment: EED LC-MS assay (SAH production by PRC2); assay type: biochemical; conditions: read-out: (b) IC50, EED LC-MS Qualified
Procedure: Compounds of the present invention were assessed for their ability to inhibit PRC2 activity in a pentameric complex of EZH2, SUZ12, EED, Rbap48 and AEBP in biochemical assays. The ability of compounds of the present invention to inhibit cellular activity of PRC2 was assessed by analysing histone H3 lysine 27 methylation in human cell lines. The ability of compounds of the present invention to inhibit cancers was derived from their ability to modulate activity in human cancer cell lines bearing specific dependence to PRC2 activity to maintain cancerous growth.
Representative compounds of the present invention were serially and separately diluted 3-fold in DMSO to obtain a total of eight or twelve concentrations. Then the test compounds at each concentration (120 nL of each) were transferred by Mosquito into a 384-well Perkin Elmer ProxiPlate 384 plus plates. Solutions (6 μL) of 24 nM the wild type PRC2 (wtPRC2) complex and 2 μM SAM in reaction buffer (20 mM Tris, pH 8.0, 0.1% BSA, 0.01% Triton, 0.5 mM DTT) were added to the wells that were then incubated with the test compound for 20 min. A 6 μL solution of 3 μM of the peptide substrate H3K27Me0 (histone H3[21-44]-biotin) in reaction buffer was added to initiate each reaction. The final components in the reaction solution include 12 nM wtPRC2 complex, 1 μM SAM, and 1.5 μM H3K27me0 peptide with varying concentration of the compounds. A positive control consisted of the enzyme, 1 μM SAM and 1.5 μM substrate in the absence of the test compound, and a negative control consisted of 1 μM SAM and 1.5 μM substrate only. Each reaction was incubated at rt for 120 min, then stopped by addition of 3 μL per of quench solution (2.5% TFA with 320 nM d4-SAH). The reaction mixture was centrifuged (Eppendorf centrifuge 5810, Rotor A-4-62) for 2 min at 2000 rpm and read on an API 4000 triple quadrupole mass spec with Turbulon Spray (Applied Biosystem) coupled with Prominence UFLC (Shimadzu). The levels of SAH production were then normalized based on the values coming from the positive and negative controls to give percent enzyme activities. The data were then fit to a dose response equation using the program Helios to get the IC50 values of the test compound.

[2] = tested on: H3K27 methylation in G401 cell; experiment: ELISA (H3K27 methylation) assay in G401 cells; assay type: cell-based, human
Outline: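 IC50 from dose-response fit of percent inhibition relative to DMSO, using H3K27me3/me2 ELISA signal (ECL) normalized to histone H3. Histones HCl-extracted after 48 h compound exposure of G401 cells at up to 20 μM, 8- or 12-point 3-fold series.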

EED (1-441)-His protein = target: T1, EED (1-441)-His protein (Homo sapiens, UniProt O75530); experiment: EED-H3K27Me3 peptide competition binding assay by AlphaScreen; conditions: read-out: (a) IC50, EED Alphascreen binding Qualified
T1 construct: 30 nM EED (1-441)-His protein
T1 sequence (O75530 whole entry): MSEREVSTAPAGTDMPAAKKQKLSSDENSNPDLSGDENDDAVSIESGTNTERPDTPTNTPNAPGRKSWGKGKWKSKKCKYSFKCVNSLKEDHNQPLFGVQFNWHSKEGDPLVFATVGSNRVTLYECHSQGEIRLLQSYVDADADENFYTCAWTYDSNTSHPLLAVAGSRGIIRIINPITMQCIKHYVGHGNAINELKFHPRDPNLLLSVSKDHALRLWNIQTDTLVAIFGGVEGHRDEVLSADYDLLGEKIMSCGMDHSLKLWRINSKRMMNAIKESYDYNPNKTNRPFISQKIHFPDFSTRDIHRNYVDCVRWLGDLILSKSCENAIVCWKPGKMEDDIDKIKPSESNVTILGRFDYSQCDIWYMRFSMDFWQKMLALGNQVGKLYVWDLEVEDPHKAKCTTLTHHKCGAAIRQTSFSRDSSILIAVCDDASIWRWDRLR
Outline: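 Serially diluted compound (12 points, 3-fold) incubated 20 min with 30 nM EED(1-441)-His and 15 nM biotin-H3K27Me3(19-33) peptide in 25 mM HEPES pH 8, 0.02% Tween-20, 0.5% BSA. Ni-chelate acceptor/streptavidin donor beads (10 μg/mL each) added, 1 h rt dark; 615 nm emission normalized to controls, dose-response fit for IC50.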

[3] = Homo sapiens, G-401, read-out: (c) IC50, ELISA Qualified

Chain of wild type PRC2 (wtPRC2) complex (O75530 whole entry): as above
Chain of wild type PRC2 (wtPRC2) complex (Q15910 whole entry partner): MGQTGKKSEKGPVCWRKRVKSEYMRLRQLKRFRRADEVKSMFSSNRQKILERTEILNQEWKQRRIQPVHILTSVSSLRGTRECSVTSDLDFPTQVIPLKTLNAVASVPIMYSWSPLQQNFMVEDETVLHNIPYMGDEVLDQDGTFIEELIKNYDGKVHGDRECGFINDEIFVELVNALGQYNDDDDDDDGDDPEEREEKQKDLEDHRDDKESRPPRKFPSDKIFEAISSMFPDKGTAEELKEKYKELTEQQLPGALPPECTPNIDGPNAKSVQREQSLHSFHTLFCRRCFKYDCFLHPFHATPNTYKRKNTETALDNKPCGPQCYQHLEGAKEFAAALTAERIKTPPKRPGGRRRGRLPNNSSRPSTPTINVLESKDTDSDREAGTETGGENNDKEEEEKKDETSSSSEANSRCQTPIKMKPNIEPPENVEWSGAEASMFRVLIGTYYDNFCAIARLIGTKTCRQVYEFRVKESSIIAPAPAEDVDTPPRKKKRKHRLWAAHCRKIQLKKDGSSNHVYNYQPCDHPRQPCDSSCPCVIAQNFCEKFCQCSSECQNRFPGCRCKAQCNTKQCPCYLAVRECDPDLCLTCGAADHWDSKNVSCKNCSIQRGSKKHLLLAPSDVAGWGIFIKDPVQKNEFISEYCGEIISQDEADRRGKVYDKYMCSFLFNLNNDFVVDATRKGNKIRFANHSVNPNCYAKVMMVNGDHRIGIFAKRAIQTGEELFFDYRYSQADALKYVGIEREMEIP
Chain of wild type PRC2 (wtPRC2) complex (Q15022 whole entry partner): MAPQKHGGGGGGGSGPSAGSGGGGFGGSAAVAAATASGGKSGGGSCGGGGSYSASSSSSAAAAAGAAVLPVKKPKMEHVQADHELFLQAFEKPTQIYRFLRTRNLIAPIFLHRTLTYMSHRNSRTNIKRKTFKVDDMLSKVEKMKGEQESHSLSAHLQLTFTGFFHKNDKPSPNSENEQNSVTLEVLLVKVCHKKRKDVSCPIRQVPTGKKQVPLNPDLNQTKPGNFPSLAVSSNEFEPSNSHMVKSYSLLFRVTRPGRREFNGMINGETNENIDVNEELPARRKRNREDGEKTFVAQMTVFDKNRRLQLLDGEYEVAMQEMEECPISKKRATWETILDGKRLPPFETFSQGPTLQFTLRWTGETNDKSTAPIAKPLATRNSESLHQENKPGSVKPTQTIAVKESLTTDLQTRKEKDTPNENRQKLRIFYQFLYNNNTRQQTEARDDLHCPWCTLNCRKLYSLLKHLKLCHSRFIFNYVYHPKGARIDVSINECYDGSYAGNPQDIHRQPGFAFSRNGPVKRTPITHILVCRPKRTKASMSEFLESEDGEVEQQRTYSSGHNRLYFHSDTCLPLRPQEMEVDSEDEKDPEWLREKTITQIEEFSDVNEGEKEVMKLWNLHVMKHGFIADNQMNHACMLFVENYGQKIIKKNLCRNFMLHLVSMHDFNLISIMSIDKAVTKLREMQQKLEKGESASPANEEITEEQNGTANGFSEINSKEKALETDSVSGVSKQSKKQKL
Chain of wild type PRC2 (wtPRC2) complex (Q09028 whole entry partner): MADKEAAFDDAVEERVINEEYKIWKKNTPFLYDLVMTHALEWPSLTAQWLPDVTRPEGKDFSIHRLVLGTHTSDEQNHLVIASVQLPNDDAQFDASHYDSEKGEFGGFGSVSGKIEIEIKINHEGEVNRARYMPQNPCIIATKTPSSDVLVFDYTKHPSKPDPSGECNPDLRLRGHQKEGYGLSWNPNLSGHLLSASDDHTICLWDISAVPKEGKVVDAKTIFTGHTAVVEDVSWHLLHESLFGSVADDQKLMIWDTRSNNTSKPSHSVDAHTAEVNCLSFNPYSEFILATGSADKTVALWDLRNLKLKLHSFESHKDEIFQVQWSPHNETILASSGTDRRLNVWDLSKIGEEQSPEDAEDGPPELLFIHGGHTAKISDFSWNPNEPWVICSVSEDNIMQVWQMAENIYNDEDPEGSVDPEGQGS
Chain of wild type PRC2 (wtPRC2) complex (Q6ZN18 whole entry partner): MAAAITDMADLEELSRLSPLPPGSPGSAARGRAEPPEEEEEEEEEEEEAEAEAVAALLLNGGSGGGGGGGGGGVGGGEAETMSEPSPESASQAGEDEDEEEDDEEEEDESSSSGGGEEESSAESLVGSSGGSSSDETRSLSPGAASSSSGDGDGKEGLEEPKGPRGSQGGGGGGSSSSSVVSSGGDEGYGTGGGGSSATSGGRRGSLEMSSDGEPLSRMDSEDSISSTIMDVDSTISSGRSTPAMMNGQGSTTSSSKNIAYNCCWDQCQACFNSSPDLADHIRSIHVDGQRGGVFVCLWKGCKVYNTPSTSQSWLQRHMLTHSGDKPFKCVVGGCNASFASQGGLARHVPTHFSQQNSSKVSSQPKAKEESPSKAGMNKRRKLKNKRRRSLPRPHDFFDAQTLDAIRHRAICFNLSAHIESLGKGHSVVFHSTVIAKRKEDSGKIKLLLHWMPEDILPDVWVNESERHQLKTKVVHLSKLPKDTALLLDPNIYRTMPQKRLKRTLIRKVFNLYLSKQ

| Structure (SMILES) | IC50 [1] [nM] | IC50 [2, 3] [nM] | IC50 (EED (1-441)-His protein) [nM] | IC50 ([2]; read-out: (c) IC50, ELISA Qualified) [nM] |
| --- | --- | --- | --- | --- |
| COc1cccc(F)c1CNc1ccc(-c2ccnn2C)c2nncn12 [Example 1, N-(2-Fluoro-6-methoxybenzyl)-8-(1-methyl-1H-pyrazol-5-yl)-[1,2,4]triazolo[4,3-a]pyridin-5-amine] | 11.2 | 18.1 | 27.7 |  |
| COc1cccc(F)c1CNc1ccc(-c2cccnc2C)c2nncn12 [Example 2, N-(2-Fluoro-6-methoxybenzyl)-8-(2-methylpyridin-3-yl)-[1,2,4]triazolo[4,3-a]pyridin-5-amine] | 18.8 | 8.7 | 10.9 |  |
| COc1cccc(F)c1CNc1ccc(-c2cnc(C)nc2C)c2nncn12 [Example 3, 8-(2,4-Dimethylpyrimidin-5-yl)-N-(2-fluoro-6-methoxybenzyl)-[1,2,4]triazolo[4,3-a]pyridin-5-amine] | 23.6 | 10.7 | 17.5 |  |
| COc1cccc(F)c1CNc1ccc(-c2cnc(CC(C)C)nc2C)c2nncn12 [Example 4, N-(2-Fluoro-6-methoxybenzyl)-8-(2-isobutyl-4-methylpyrimidin-5-yl)-[1,2,4]triazolo[4,3a]-pyridin-5-amine] | 6.6 | 5.7 | 8.6 |  |
| COc1cccc(F)c1CNc1ccc(-c2ccccn2)c2nncn12 [Example 5, N-(2-Fluoro-6-methoxybenzyl)-8-(pyridin-2-yl)-[1,2,4]triazolo[4,3-a]pyridin-5-amine] | 137 | 42.6 | 48.2 |  |
| COc1cccc(F)c1CNc1ccc(-c2ncccc2C)c2nncn12 [Example 6, N-(2-Fluoro-6-methoxybenzyl)-8-(3-methylpyridin-2-yl)-[1,2,4]triazolo[4,3-a]pyridin-5-amine] | 149 | 57 | 90.9 |  |
| COc1cccc(F)c1CNc1ccc(-n2cc(C)nc2C)c2nncn12 [Example 7, 8-(2,4-Dimethyl-1H-imidazol-1-yl)-N-(2-fluoro-6-methoxybenzyl)-[1,2,4]triazolo[4,3-a]pyridin-5-amine] | 11.4 | 10.1 | 18.7 |  |
| COc1cccc(F)c1CNc1ccc(-c2cncn2C)c2nncn12 [Example 8] | 35.2 | 4.3 | 10.6 |  |
| COc1cccc(F)c1CNc1ccc(-c2nnc(C)o2)c2nncn12 [Example 9, N-(2-Fluoro-6-methoxybenzyl)-8-(5-methyl-1,3,4-oxadiazol-2-yl)-[1,2,4]triazolo[4,3-a]pyridin-5-amine] | 62.4 | 2.4 | 33.9 |  |
| CCc1nc(-c2ccc(NCc3c(F)cccc3OC)n3cnnc23)no1 [Example 10, 8-(5-Ethyl-1,2,4-oxadiazol-3-yl)-N-(2-fluoro-6-methoxybenzy)-[1,2,4]triazolo[4,3-a]pyridin-5-amine] | 198 |  | 61.1 | 9.3 |
| COc1cccc(F)c1CNc1ccc(-c2nc(C)no2)c2nncn12 [Example 11, N-(2-Fluoro-6-methoxybenzyl)-8-(3-methyl-1,2,4-oxadiazol-5-yl)-[1,2,4]triazolo[4,3-a]pyridin-5-amine] | 119 | 40.5 | 30.7 |  |
| COc1ccccc1CNc1ccc(-c2ccc(CN(C)C)cc2)c2nncn12 [Example 15, 8-(4-((dimethylamino)methyl)phenyl)-N-(2-methoxybenzyl)-[1,2,4] triazolo[4,3-a]pyridin-5-amine] | 66.3 | 17.5 | 14.9 |  |
| COc1ccc(-c2ccc(NCc3ccccc3OC)n3cnnc23)cn1 [Example 16, N-(2-methoxybenzyl)-8-(6-methoxypyridin-3-yl)-[1,2,4] triazolo[4,3-a]pyridin-5-amine] | 377 | 158 | 56.2 |  |
| COc1ccccc1CNc1ccc(-c2ccc(S(=O)(=O)N3CCN(C)CC3)cc2)c2nncn12 [Example 18, N-(2-methoxybenzyl)-8-(4-((4-methylpiperazin-1-yl)sulfonyl)phenyl)-[1,2,4] triazolo[4,3-a]pyridin-5-amine] | 930 | 114 | 81.7 |  |
| CN(C)Cc1ccc(-c2ccc(NCc3ccccc3OC(F)F)n3cnnc23)cc1 [Example 19, N-(2-(difluoromethoxy)benzyl)-8-(4-((dimethylamino)methyl)phenyl)-[1,2,4]triazolo[4,3-a] pyridin-5-amine] | 587 | 363 | 169 |  |
| COc1ccccc1CNc1ccc(-c2cnc(N3CCN(C)CC3)c(C)c2)c2nncn12 [Example 20, N-(2-methoxybenzyl)-8-(5-methyl-6-(4-methylpiperazin-1-yl)pyridin-3-yl)-[1,2,4]triazolo[4,3-a]pyridin-5-amine] | 248 | 185 | 79 |  |
| COc1ccccc1CNc1ccc(-c2ccc(N3CCN(C)CC3)nc2)c2nncn12 [Example 21, N-(2-methoxybenzyl)-8-(6-(4-methylpiperazin-1-yl)pyridin-3-yl)-[1,2,4] triazolo[4,3-a]pyridin-5-amine] | 1060 | 234 | 124 |  |
| COc1ccccc1CNc1ccc(-c2ccc(N3CCN(C)CC3)cc2)c2nncn12 [Example 22, N-(2-methoxybenzyl)-8-(4-(4-methylpiperazin-1-yl)phenyl)-[1,2,4]triazolo[4,3-a] pyridin-5-amine] | 365 | 42.3 | 56.2 |  |
| COc1ccccc1CNc1ccc(-c2ccncc2)c2nncn12 [Example 24, N-(2-methoxybenzyl)-8-(pyridin-4-yl)-[1,2,4] triazolo[4,3-a]pyridin-5-amine] | 92.1 | 47.8 | 46.4 |  |
| COc1ccccc1CNc1ccc(-c2ccc(S(C)(=O)=O)cc2)c2nncn12 [Example 25, N-(2-methoxybenzyl)-8-(4-(methylsulfonyl)phenyl)-[1,2,4]triazolo[4,3-a]pyridin-5-amine] | 151 | 50.3 | 33.6 |  |
| COc1ccccc1CNc1ccc(-c2ccnnc2)c2nncn12 [Example 26, N-(2-methoxybenzyl)-8-(pyridazin-4-yl)-[1,2,4] triazolo[4,3-a]pyridin-5-amine] | 498 | 47.7 | 73.4 |  |
| COc1ccccc1CNc1ccc(-c2cccnc2)c2nncn12 [Example 27, N-(2-methoxybenzyl)-8-(pyridin-3-yl)-[1,2,4] triazolo[4,3-a]pyridin-5-amine] | 266 | 51.5 | 44.4 |  |
| COc1ccccc1CNc1ccc(-c2cccc(CN(C)C)c2)c2nncn12 [Example 28, 8-(3-((dimethylamino)methyl)phenyl)-N-(2-methoxybenzyl)-[1,2,4] triazolo[4,3-a]pyridin-5-amine] | 291 | 54 | 37.9 |  |
| COc1ccccc1CNc1ccc(-c2ccc(CN3CCC3)cc2)c2nncn12 [Example 29, 8-(4-(azetidin-1-ylmethyl)phenyl)-N-(2-methoxybenzyl)-[1,2,4]triazolo[4,3-a] pyridin-5-amine] | 87.7 | 23.1 | 13 |  |
| COc1ccccc1CNc1ccc(-c2ccc(CN3CCOCC3)cc2)c2nncn12 [Example 30, N-(2-methoxybenzyl)-8-(4-(morpholinomethyl)phenyl)-[1,2,4]triazolo[4,3-a]pyridin-5-amine] | 483 | 113 | 38.2 |  |
| COc1ccccc1CNc1ccc(-c2ccc(C(C)N3CCCC3)cc2)c2nncn12 (stereo not drawn) [Example 32, N-(2-methoxybenzyl)-8-(4-(1-(pyrrolidin-1-yl)ethyl)phenyl)-[1,2,4] triazolo[4,3-a]pyridin-5-amine] | 142 | 38 | 17.4 |  |
